# Measurements taken from PubChem BioAssay AID2060483 (Molecular Pharmacology Branch, DTP, NCI, 2025).
# Test system: K24384-001-R-PDC complex spheroids, viability
# Assay: Anticancer human tumor K24384-001-R-PDC patient-derived pancreatic adenocarcinoma cell line growth inhibition [GQUAD]
# Conditions: for IC50: curve of first compound; for viability, T/C: stronger effect = lower value
# How it was run: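 Multi-cell-type spheroids of tumor cells with HUVEC and mesenchymal stem cells, treated with drug combinations. Concentrations descend in half-log steps from near clinical Cmax, or from 10 microM where Cmax is unknown; viability read-out.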
# [1] = second compound 0.0316 µM, first compound 0.0316 µM
# [2] = second compound 0.0316 µM, first compound 0.1 µM
# [3] = second compound 0.0316 µM, first compound 0.316 µM
# [4] = second compound 0.0316 µM, first compound 1 µM
# [5] = second compound 0.0316 µM, first compound 3.16 µM
# [6] = second compound 0.0316 µM, first compound 10 µM
# [7] = second compound 0.1 µM, first compound 0.0316 µM
# [8] = second compound 0.1 µM, first compound 0.1 µM
# [9] = second compound 0.1 µM, first compound 0.316 µM
# [10] = second compound 0.1 µM, first compound 1 µM
# [11] = second compound 0.1 µM, first compound 3.16 µM
# [12] = second compound 0.1 µM, first compound 10 µM
# [13] = second compound 0.316 µM, first compound 0.0316 µM
# [14] = second compound 0.316 µM, first compound 0.1 µM
# [15] = second compound 0.316 µM, first compound 0.316 µM
# [16] = second compound 0.316 µM, first compound 1 µM
# [17] = second compound 0.316 µM, first compound 3.16 µM
# [18] = second compound 0.316 µM, first compound 10 µM
# [19] = second compound 1 µM, first compound 0.0316 µM
# [20] = second compound 1 µM, first compound 0.1 µM
# [21] = second compound 1 µM, first compound 0.316 µM
# [22] = second compound 1 µM, first compound 1 µM
# [23] = second compound 1 µM, first compound 3.16 µM
# [24] = second compound 1 µM, first compound 10 µM
# [25] = second compound 3.16 µM, first compound 0.0316 µM
# [26] = second compound 3.16 µM, first compound 0.1 µM
# [27] = second compound 3.16 µM, first compound 0.316 µM
# [28] = second compound 3.16 µM, first compound 1 µM
# [29] = second compound 3.16 µM, first compound 3.16 µM
# [30] = second compound 3.16 µM, first compound 10 µM
# [31] = second compound 10 µM, first compound 0.0316 µM
# [32] = second compound 10 µM, first compound 0.1 µM
# [33] = second compound 10 µM, first compound 0.316 µM
# [34] = second compound 10 µM, first compound 1 µM
# [35] = second compound 10 µM, first compound 3.16 µM
# [36] = second compound 10 µM, first compound 10 µM
# 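Note: spheroids exposed to compounds for seven days.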
smiles,measurement,setting,value
CCCS(=O)(=O)Nc1ccc(F)c(C(=O)c2c[nH]c3ncc(-c4ccc(Cl)cc4)cc23)c1F + CN(C)c1ccc(Nc2c3ccc(NC(=O)CCN4CCCC4)cc3nc3cc(NC(=O)CCN4CCCC4)ccc23)cc1,IC50,second compound 0.0316 µM,> 10 µM
same,IC50,second compound 0.1 µM,9.98 µM
same,IC50,second compound 0.316 µM,> 10 µM
same,IC50,second compound 1 µM,> 10 µM
same,IC50,second compound 3.16 µM,9.35 µM
same,IC50,second compound 10 µM,7.84 µM
same,"viability, T/C",[1],110%
same,"viability, T/C",[2],102%
same,"viability, T/C",[3],129%
same,"viability, T/C",[4],128%
same,"viability, T/C",[5],138%
same,"viability, T/C",[6],54%
same,"viability, T/C",[7],98.5%
same,"viability, T/C",[8],118%
same,"viability, T/C",[9],113%
same,"viability, T/C",[10],124%
same,"viability, T/C",[11],150%
same,"viability, T/C",[12],49.8%
same,"viability, T/C",[13],93.5%
same,"viability, T/C",[14],114%
same,"viability, T/C",[15],124%
same,"viability, T/C",[16],125%
same,"viability, T/C",[17],144%
same,"viability, T/C",[18],52%
same,"viability, T/C",[19],102%
same,"viability, T/C",[20],105%
same,"viability, T/C",[21],117%
same,"viability, T/C",[22],131%
same,"viability, T/C",[23],154%
same,"viability, T/C",[24],53.3%
same,"viability, T/C",[25],92.7%
same,"viability, T/C",[26],101%
same,"viability, T/C",[27],97.2%
same,"viability, T/C",[28],128%
same,"viability, T/C",[29],140%
same,"viability, T/C",[30],46%
same,"viability, T/C",[31],84.3%
same,"viability, T/C",[32],114%
same,"viability, T/C",[33],109%
same,"viability, T/C",[34],149%
same,"viability, T/C",[35],139%
same,"viability, T/C",[36],31.3%
CC(C)n1c(=O)n(C)c2cnc3cc(F)c(-c4ccc(OCCCN5CCCCC5)nc4)cc3c21 + CN(C)c1ccc(Nc2c3ccc(NC(=O)CCN4CCCC4)cc3nc3cc(NC(=O)CCN4CCCC4)ccc23)cc1,IC50,second compound 0.0316 µM,> 10 µM
same,IC50,second compound 0.1 µM,> 10 µM
same,IC50,second compound 0.316 µM,> 10 µM
same,IC50,second compound 1 µM,> 10 µM
same,IC50,second compound 3.16 µM,9.51 µM
same,IC50,second compound 10 µM,0.622 µM
same,"viability, T/C",[1],97.1%
same,"viability, T/C",[2],82.6%
same,"viability, T/C",[3],109%
same,"viability, T/C",[4],116%
same,"viability, T/C",[5],119%
same,"viability, T/C",[6],84.1%
same,"viability, T/C",[7],85.7%
same,"viability, T/C",[8],101%
same,"viability, T/C",[9],121%
same,"viability, T/C",[10],99.4%
same,"viability, T/C",[11],122%
same,"viability, T/C",[12],79%
same,"viability, T/C",[13],80.5%
same,"viability, T/C",[14],97.2%
same,"viability, T/C",[15],109%
same,"viability, T/C",[16],110%
same,"viability, T/C",[17],129%
same,"viability, T/C",[18],86.9%
same,"viability, T/C",[19],77.9%
same,"viability, T/C",[20],88.7%
same,"viability, T/C",[21],92.8%
same,"viability, T/C",[22],118%
same,"viability, T/C",[23],109%
same,"viability, T/C",[24],67.3%
same,"viability, T/C",[25],90.2%
same,"viability, T/C",[26],89.2%
same,"viability, T/C",[27],105%
same,"viability, T/C",[28],95.7%
same,"viability, T/C",[29],78.2%
same,"viability, T/C",[30],48.7%
same,"viability, T/C",[31],69.8%
same,"viability, T/C",[32],70.5%
same,"viability, T/C",[33],55.9%
same,"viability, T/C",[34],44.7%
same,"viability, T/C",[35],31%
same,"viability, T/C",[36],21.5%
CC[C@@]1(O)C(=O)OCc2c1cc1n(c2=O)Cc2cc3c(CN(C)C)c(O)ccc3nc2-1 + CN(C)c1ccc(Nc2c3ccc(NC(=O)CCN4CCCC4)cc3nc3cc(NC(=O)CCN4CCCC4)ccc23)cc1,IC50,second compound 0.0316 µM,0.0897 µM
same,IC50,second compound 0.1 µM,0.0955 µM
same,IC50,second compound 0.316 µM,0.269 µM
same,IC50,second compound 1 µM,0.125 µM
same,IC50,second compound 3.16 µM,0.153 µM
same,IC50,second compound 10 µM,0.155 µM
same,"viability, T/C","second compound 0.0316 µM, first compound 0.000999 µM",102%
same,"viability, T/C","second compound 0.0316 µM, first compound 0.00316 µM",101%
same,"viability, T/C","second compound 0.0316 µM, first compound 0.00999 µM",101%
same,"viability, T/C",[1],77.5%
same,"viability, T/C","second compound 0.0316 µM, first compound 0.0999 µM",47.8%
same,"viability, T/C",[3],42.5%
same,"viability, T/C","second compound 0.1 µM, first compound 0.000999 µM",99.8%
same,"viability, T/C","second compound 0.1 µM, first compound 0.00316 µM",96.7%
same,"viability, T/C","second compound 0.1 µM, first compound 0.00999 µM",103%
same,"viability, T/C",[7],74.4%
same,"viability, T/C","second compound 0.1 µM, first compound 0.0999 µM",51.8%
same,"viability, T/C",[9],38.8%
same,"viability, T/C","second compound 0.316 µM, first compound 0.000999 µM",96.9%
same,"viability, T/C","second compound 0.316 µM, first compound 0.00316 µM",99.6%
same,"viability, T/C","second compound 0.316 µM, first compound 0.00999 µM",89.1%
same,"viability, T/C",[13],89.9%
same,"viability, T/C","second compound 0.316 µM, first compound 0.0999 µM",55.5%
same,"viability, T/C",[15],49.2%
same,"viability, T/C","second compound 1 µM, first compound 0.000999 µM",99.8%
same,"viability, T/C","second compound 1 µM, first compound 0.00316 µM",103%
same,"viability, T/C","second compound 1 µM, first compound 0.00999 µM",96%
same,"viability, T/C",[19],82.4%
same,"viability, T/C","second compound 1 µM, first compound 0.0999 µM",52.4%
same,"viability, T/C",[21],39.3%
same,"viability, T/C","second compound 3.16 µM, first compound 0.000999 µM",102%
same,"viability, T/C","second compound 3.16 µM, first compound 0.00316 µM",90.7%
same,"viability, T/C","second compound 3.16 µM, first compound 0.00999 µM",88.5%
same,"viability, T/C",[25],93.1%
same,"viability, T/C","second compound 3.16 µM, first compound 0.0999 µM",50.8%
same,"viability, T/C",[27],48.6%
same,"viability, T/C","second compound 10 µM, first compound 0.000999 µM",103%
same,"viability, T/C","second compound 10 µM, first compound 0.00316 µM",103%
same,"viability, T/C","second compound 10 µM, first compound 0.00999 µM",105%
same,"viability, T/C",[31],109%
same,"viability, T/C","second compound 10 µM, first compound 0.0999 µM",57.4%
same,"viability, T/C",[33],38%
